Experiments:
[1] = Procedure: The samples were prepared using USP grade aspirin, which was dried at 110° before use. […] Spectrum b was taken after the sample (containing 10% water) was stored at 70° C. for 96 hours.
rats = assay: Acute Oral Toxicity--Rat; format: in vivo
Procedure: An approximate oral LD50 of dimethyl isorbide was determined.

rabbit eye = assay: Eye Irritation--Rabbit; format: in vivo
Procedure: […] was instilled into the conjunctival sac of the rabbit eye. Over a period of several years two different lots of DMI (designated here merely as A or B) were tested at different times and at various concentrations. […] The following classification of degree of irritancy, according to the terminology of […], was made for the various tests on the unwashed eye: The classification of DMI according to specifications provided in the Federal Hazardous Substances Act for the specified test and concentration are shown below: […]

[2] = test system: external auditory canal of rabbit ear; assay: Instillation into Rabbit Ear; format: in vivo; conditions: four right rabbit ears, up to 5 days
Procedure: DMI was introduced onto the external auditory canal of each of four right rabbit ears. Likewise, four other right rabbit ears were instilled with 0.35 ml of 40% DMI in water.

human skin = assay: Human Patch Tests; format: in vivo
Text: Undiluted dimethyl ether of isosorbide has been tested under a closed patch of human subjects in accordance with the […] patch-test procedure originally designed by the dermatologist, B. Schwartz, M.D., and more recently adapted by R. B. Osbourn, M.D.

[3] = Preliminary toxicity of dimethyl isosorbide
Text: We use dimethyl isosorbide (DMI) as the vehicle for the liquid formulation of aspirin. […] When used internally, it is predicted that DMI will be metabolized to form isosorbide, a remedy for diuretic purposes. From the chemical structural point of view, it is seen that DMI is practically inert to aspirin degradation.

rabbit skin [4] = conditions: in vivo
Procedure: (§1) Groups of four albino rabbits were given dosages of 1.00, 2.15, 4.64 and 10.0 ml per kg, respectively.

rabbit skin [5] = conditions: in vivo; remark: listed apart in the source
rabbit skin [6] = assay: Acute Percutaneous Toxicity--Rabbit
Procedure: as §1

Compound: CO[C@H]1CO[C@H]2[C@@H]1OC[C@H]2OC [Dimethyl isosorbide, dimethyl isosorbide]
- chemical interaction with aspirin / induction of aspirin degradation [1]: does not interact chemically with aspirin, not does it induce the degradation of aspirin
- Signs of intoxication (rats): depression, lacrimation, labored respiration, tachcardia and ataxia
- classification for acute oral toxicities (Hodge and Sterner) (rats): practically nontoxic
- examination of the tissues of the animals that died (rats; 6.81 and 10.0 ml/kg): hyperemic lungs, slight irritation of the small intestine and congestion of kidneys and adrenals
- mortality (rats; 6.81 and 10.0 ml/kg): all of the 10 rats given the two higher dosages died
- Class. as Irritating Code of Federal Regulations (rabbit eye; 40%, lot A, test 1): Negative
- No. of Eyes Positive / No. of Eyes Tested CFR (rabbit eye; 40%, lot A, test 1): 0/6
- Average Score (out of potential 100) (rabbit eye; 40%, lot A, test 1, 3 eyes, washed 2 sec., 1 hour): 0.0
- Average Score (out of potential 100) (rabbit eye; 40%, lot A, test 1, 3 eyes, washed 2 sec., 24 hours): 0.0
- Average Score (out of potential 100) (rabbit eye; 40%, lot A, test 1, 3 eyes, washed 2 sec., 48 hours): 0.0
- Average Score (out of potential 100) (rabbit eye; 40%, lot A, test 1, 3 eyes, washed 2 sec., 72 hours): 0.0
- Average Score (out of potential 100) (rabbit eye; 40%, lot A, test 1, 3 eyes, washed 2 sec., 96 hours): 0.0
- Average Score (out of potential 100) (rabbit eye; 40%, lot A, test 1, 3 eyes, washed 2 sec., 7 days): 0.0
- Average Score (out of potential 100) (rabbit eye; 40%, lot A, test 1, 6 eyes, unwashed, 1 hour): 0.0
- Average Score (out of potential 100) (rabbit eye; 40%, lot A, test 1, 6 eyes, unwashed, 24 hours): 0.0
- Average Score (out of potential 100) (rabbit eye; 40%, lot A, test 1, 6 eyes, unwashed, 48 hours): 0.0
- Average Score (out of potential 100) (rabbit eye; 40%, lot A, test 1, 6 eyes, unwashed, 72 hours): 0.0
- Average Score (out of potential 100) (rabbit eye; 40%, lot A, test 1, 6 eyes, unwashed, 96 hours): 0.0
- Average Score (out of potential 100) (rabbit eye; 40%, lot A, test 1, 6 eyes, unwashed, 7 days): 0.0
- Classification (Kay and Calandra) (rabbit eye; 40%, lot A, test 1, unwashed eye): Nonirritating
- Class. as Irritating Code of Federal Regulations (rabbit eye; 60%, lot A, test 1): Negative
- No. of Eyes Positive / No. of Eyes Tested CFR (rabbit eye; 60%, lot A, test 1): 0/6
- Average Score (out of potential 100) (rabbit eye; 60%, lot A, test 1, 3 eyes, washed 2 sec., 1 hour): 0.0
- Average Score (out of potential 100) (rabbit eye; 60%, lot A, test 1, 3 eyes, washed 2 sec., 24 hours): 0.0
- Average Score (out of potential 100) (rabbit eye; 60%, lot A, test 1, 3 eyes, washed 2 sec., 48 hours): 0.0
- Average Score (out of potential 100) (rabbit eye; 60%, lot A, test 1, 3 eyes, washed 2 sec., 72 hours): 0.0
- Average Score (out of potential 100) (rabbit eye; 60%, lot A, test 1, 3 eyes, washed 2 sec., 96 hours): 0.0
- Average Score (out of potential 100) (rabbit eye; 60%, lot A, test 1, 3 eyes, washed 2 sec., 7 days): 0.0
- Average Score (out of potential 100) (rabbit eye; 60%, lot A, test 1, 6 eyes, unwashed, 1 hour): 0.0
- Average Score (out of potential 100) (rabbit eye; 60%, lot A, test 1, 6 eyes, unwashed, 24 hours): 0.0
- Average Score (out of potential 100) (rabbit eye; 60%, lot A, test 1, 6 eyes, unwashed, 48 hours): 0.0
- Average Score (out of potential 100) (rabbit eye; 60%, lot A, test 1, 6 eyes, unwashed, 72 hours): 0.0
- Average Score (out of potential 100) (rabbit eye; 60%, lot A, test 1, 6 eyes, unwashed, 96 hours): 0.0
- Average Score (out of potential 100) (rabbit eye; 60%, lot A, test 1, 6 eyes, unwashed, 7 days): 0.0
- Classification (Kay and Calandra) (rabbit eye; 60%, lot A, test 1, unwashed eye): Nonirritating
- Class. as Irritating Code of Federal Regulations (rabbit eye; 80%, lot A, test 1): Negative
- No. of Eyes Positive / No. of Eyes Tested CFR (rabbit eye; 80%, lot A, test 1): 0/6
- Average Score (out of potential 100) (rabbit eye; 80%, lot A, test 1, 3 eyes, washed 2 sec., 1 hour): 0.0
- Average Score (out of potential 100) (rabbit eye; 80%, lot A, test 1, 3 eyes, washed 2 sec., 24 hours): 0.0
- Average Score (out of potential 100) (rabbit eye; 80%, lot A, test 1, 3 eyes, washed 2 sec., 48 hours): 0.0
- Average Score (out of potential 100) (rabbit eye; 80%, lot A, test 1, 3 eyes, washed 2 sec., 72 hours): 0.0
- Average Score (out of potential 100) (rabbit eye; 80%, lot A, test 1, 3 eyes, washed 2 sec., 96 hours): 0.0
- Average Score (out of potential 100) (rabbit eye; 80%, lot A, test 1, 3 eyes, washed 2 sec., 7 days): 0.0
- Average Score (out of potential 100) (rabbit eye; 80%, lot A, test 1, 6 eyes, unwashed, 1 hour): 0.0
- Average Score (out of potential 100) (rabbit eye; 80%, lot A, test 1, 6 eyes, unwashed, 24 hours): 0.0
- Average Score (out of potential 100) (rabbit eye; 80%, lot A, test 1, 6 eyes, unwashed, 48 hours): 0.0
- Average Score (out of potential 100) (rabbit eye; 80%, lot A, test 1, 6 eyes, unwashed, 72 hours): 0.0
- Average Score (out of potential 100) (rabbit eye; 80%, lot A, test 1, 6 eyes, unwashed, 96 hours): 0.0
- Average Score (out of potential 100) (rabbit eye; 80%, lot A, test 1, 6 eyes, unwashed, 7 days): 0.0
- Classification (Kay and Calandra) (rabbit eye; 80%, lot A, test 1, unwashed eye): Nonirritating
- Class. as Irritating Code of Federal Regulations (rabbit eye; 100%, lot A, test 1): Positive
- No. of Eyes Positive / No. of Eyes Tested CFR (rabbit eye; 100%, lot A, test 1): 4/6
- Average Score (out of potential 100) (rabbit eye; 100%, lot A, test 1, 3 eyes, washed 2 sec., 1 hour): 0.0
- Average Score (out of potential 100) (rabbit eye; 100%, lot A, test 1, 3 eyes, washed 2 sec., 24 hours): 0.0
- Average Score (out of potential 100) (rabbit eye; 100%, lot A, test 1, 3 eyes, washed 2 sec., 48 hours): 0.0
- Average Score (out of potential 100) (rabbit eye; 100%, lot A, test 1, 3 eyes, washed 2 sec., 72 hours): 0.0
- Average Score (out of potential 100) (rabbit eye; 100%, lot A, test 1, 3 eyes, washed 2 sec., 96 hours): 0.0
- Average Score (out of potential 100) (rabbit eye; 100%, lot A, test 1, 3 eyes, washed 2 sec., 7 days): 0.0
- Average Score (out of potential 100) (rabbit eye; 100%, lot A, test 1, 6 eyes, unwashed, 1 hour): 0.0
- Average Score (out of potential 100) (rabbit eye; 100%, lot A, test 1, 6 eyes, unwashed, 24 hours): 15.0
- Average Score (out of potential 100) (rabbit eye; 100%, lot A, test 1, 6 eyes, unwashed, 48 hours): 10.3
- Average Score (out of potential 100) (rabbit eye; 100%, lot A, test 1, 6 eyes, unwashed, 72 hours): 10.0
- Average Score (out of potential 100) (rabbit eye; 100%, lot A, test 1, 6 eyes, unwashed, 96 hours): 10.0
- Average Score (out of potential 100) (rabbit eye; 100%, lot A, test 1, 6 eyes, unwashed, 7 days): 10.0
- score of one eye (zero) (rabbit eye; 100%, lot A, test 1, unwashed): zero
- Classification (Kay and Calandra) (rabbit eye; 100%, lot A, test 1, unwashed eye): Cannot be classified
- maximum score of other eyes (rabbit eye; 100%, lot A, test 1, unwashed, no other eye greater at any reading): ≤ 14
- score of one eye (rabbit eye; 100%, lot A, test 1, unwashed, consistent score): 60-64
- Class. as Irritating Code of Federal Regulations (rabbit eye; 100%, lot A, test 2): Negative
- No. of Eyes Positive / No. of Eyes Tested CFR (rabbit eye; 100%, lot A, test 2): 0/6
- Average Score (out of potential 100) (rabbit eye; 100%, lot A, test 2, 3 eyes, washed 2 sec., 1 hour): 0.0
- Average Score (out of potential 100) (rabbit eye; 100%, lot A, test 2, 3 eyes, washed 2 sec., 24 hours): 0.0
- Average Score (out of potential 100) (rabbit eye; 100%, lot A, test 2, 3 eyes, washed 2 sec., 48 hours): 0.0
- Average Score (out of potential 100) (rabbit eye; 100%, lot A, test 2, 3 eyes, washed 2 sec., 72 hours): 0.0
- Average Score (out of potential 100) (rabbit eye; 100%, lot A, test 2, 3 eyes, washed 2 sec., 96 hours): 0.0
- Average Score (out of potential 100) (rabbit eye; 100%, lot A, test 2, 3 eyes, washed 2 sec., 7 days): 0.0
- Average Score (out of potential 100) (rabbit eye; 100%, lot A, test 2, 6 eyes, unwashed, 1 hour): 0.0
- Average Score (out of potential 100) (rabbit eye; 100%, lot A, test 2, 6 eyes, unwashed, 24 hours): 0.0
- Average Score (out of potential 100) (rabbit eye; 100%, lot A, test 2, 6 eyes, unwashed, 48 hours): 0.0
- Average Score (out of potential 100) (rabbit eye; 100%, lot A, test 2, 6 eyes, unwashed, 72 hours): 0.0
- Average Score (out of potential 100) (rabbit eye; 100%, lot A, test 2, 6 eyes, unwashed, 96 hours): 0.0
- Average Score (out of potential 100) (rabbit eye; 100%, lot A, test 2, 6 eyes, unwashed, 7 days): 0.0
- Classification (Kay and Calandra) (rabbit eye; 100%, lot A, test 2, unwashed eye): Nonirritating
- Class. as Irritating Code of Federal Regulations (rabbit eye; 100%, lot B, test 1): Negative
- No. of Eyes Positive / No. of Eyes Tested CFR (rabbit eye; 100%, lot B, test 1): 0/6
- Average Score (out of potential 100) (rabbit eye; 100%, lot B, test 1, 3 eyes, washed 2 sec., 1 hour): 2.7
- Average Score (out of potential 100) (rabbit eye; 100%, lot B, test 1, 3 eyes, washed 2 sec., 24 hours): 18.0
- Average Score (out of potential 100) (rabbit eye; 100%, lot B, test 1, 3 eyes, washed 2 sec., 48 hours): 17.3
- Average Score (out of potential 100) (rabbit eye; 100%, lot B, test 1, 3 eyes, washed 2 sec., 72 hours): 9.4
- Average Score (out of potential 100) (rabbit eye; 100%, lot B, test 1, 3 eyes, washed 2 sec., 96 hours): 8.7
- Average Score (out of potential 100) (rabbit eye; 100%, lot B, test 1, 3 eyes, washed 2 sec., 7 days): 0.0
- Average Score (out of potential 100) (rabbit eye; 100%, lot B, test 1, 6 eyes, unwashed, 1 hour): 3.7
- Average Score (out of potential 100) (rabbit eye; 100%, lot B, test 1, 6 eyes, unwashed, 24 hours): 11.3
- Average Score (out of potential 100) (rabbit eye; 100%, lot B, test 1, 6 eyes, unwashed, 48 hours): 5.6
- Average Score (out of potential 100) (rabbit eye; 100%, lot B, test 1, 6 eyes, unwashed, 72 hours): 5.0
- Average Score (out of potential 100) (rabbit eye; 100%, lot B, test 1, 6 eyes, unwashed, 96 hours): 5.0
- Average Score (out of potential 100) (rabbit eye; 100%, lot B, test 1, 6 eyes, unwashed, 7 days): 4.6
- score of one other eye (zero) (rabbit eye; 100%, lot B, test 1, unwashed): zero
- Classification (Kay and Calandra) (rabbit eye; 100%, lot B, test 1, unwashed eye): Mildly irritating
- score of one eye (rabbit eye; 100%, lot B, test 1, unwashed, consistently): 28-30
- variability in response of individual rabbit eyes (rabbit eye; undiluted): considerable variability in the response of individual rabbit eyes
- irritation to the integument of the external auditory canal ([2]; 0.35 ml of 40% DMI in water): No irritation to the integument of the external auditory canal was observed
- irritation to the integument of the external auditory canal ([2]; DMI): No irritation to the integument of the external auditory canal was observed
- No. of Reactors/No. of Subj. Tested, 1st Appl. (human skin; 100%, closed patch): 0/200
- No. of Reactors/No. of Subj. Tested, Both Appl. (human skin; 100%, closed patch): 2/200
- grade of reaction of the two reactors (human skin; second application only, two subjects): questionable (1) reaction
- retest of the two reactors (human skin; semiclosed patch, another site, 48 hours later): both were negative 48 hours
- primary irritant / skin sensitizer conclusion (human skin; undiluted, human skin): neither a primary irritant to the human skin nor a skin sensitizer
- toxicity (preliminary studies) [3]: practically nontoxic
- erythema (rabbit skin [4]): transitory mild to moderate erythema
- gross pathological findings (rabbit skin [4]): No gross pathological findings
- individual score of single positive reading (rabbit skin [5]): 1.0
- score (edema or erythema) (rabbit skin [5]): No score (edema or erythema) was obtained on any of the rabbits
- survival (rabbit skin [6]; undiluted, 1.00, 2.15, 4.64 and 10.0 ml per kg): All rabbits survived
- acute percutaneous toxicity (rabbit skin [6]; undiluted, rabbit skin under rubber dental dam, 24 hours): greater than 10 ml per kg of body weight

From patent US4228162A (priority 1979, dated 1980)
